Test results reported in US11230525B2, “Organic sulfur compound, method for preparing same, and pharmaceutical composition for preventing or treating cancer or an inflammatory disease, containing same as active ingredient” (SOOKMYUNG WOMENS UNIVERSITY INDUSTRY-ACADEMIC COOPERATION …, priority 2016, dated 2022).

Assays:
[1] = test system: PC-3 cells, human prostate cancer cells; test: Anticancer activity in prostate cancer xenograft model; assay type: in vivo, mice; conditions: for tumor size / cancer proliferation (FIGS. 2, 3): 50 mg/kg (SAHA 100 mg/kg) once a day for 16 days, compared with the non-treated group
Protocol: Particularly, 9×10^6 PC-3 cells, human prostate cancer cells, were inoculated subcutaneously to the right side of female BALB/c nu/nu mice at 5 weeks of age (Nara Biotech, Seoul, Republic of Korea).
(§1) When the tumor size reached 40-60 mm^3, the mice were randomly grouped (4 mice per group), which were the non-treated group (10% dimethylacetamide, 10% tween 80 and 80% distilled water), the groups treated with the compounds of comparative examples 1 and 2 (Ajoene, 50 mg/kg), the groups treated with the compounds of examples 18 and 32 (50 mg/kg), and the group treated with the positive control SAHA (Vorinostat, 100 mg/kg). The treatment was performed once a day for 16 days in total. During the treatment, the tumor size was measured with a vernier caliper, followed by evaluation according to the following formula: length (mm)×width (mm)×height (mm)/2. The weights were measured regularly.
(§2) Upon completion of the treatment (16 days later), the mice were sacrificed and the tumor weights were measured. All the experiments were performed according to the experiment protocol approved by Institutional Animal care and Use Committee (IACUC), Korea Research Institute of Bioscience and Biotechnology (KRIBB).

[2] = test system: gastric cancer cell line (NUGC-3); test: Cancer proliferation inhibitory activity (SRB, GI50), NUGC-3; assay type: cell-based; conditions: Homo sapiens, 48 hours
Summary of the method: (§3)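 Human tumour cells in serum-supplemented RPMI 1640 received test compound (0.1 μM to 10 μM; untreated wells had 0.1% DMSO). Two days later they were TCA-fixed and SRB-stained, dye absorbance at 540 nm was recorded, and growth inhibition was expressed as GI50.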

[3] = Body weight of mice in prostate cancer xenograft model; assay type: in vivo; conditions: 50 mg/kg (SAHA 100 mg/kg) once a day for 16 days
Protocol: as §1, §2

[4] = test system: renal cancer cell line (ACHN); test: Cancer proliferation inhibitory activity (SRB, GI50), ACHN; assay type: cell-based; conditions: Homo sapiens, 48 hours
Summary of the method: as §3

[5] = test system: prostate cancer cell line (PC-3); test: Cancer proliferation inhibitory activity (SRB, GI50), PC-3; assay type: cell-based; conditions: Homo sapiens, 48 hours
Summary of the method: as §3

[6] = test system: lung cancer cell line (NCl-H23); test: Cancer proliferation inhibitory activity (SRB, GI50), NCI-H23; assay type: cell-based; conditions: Homo sapiens, 48 hours
Summary of the method: as §3

[7] = test system: colorectal cancer cell line (HCT-15); test: Cancer proliferation inhibitory activity (SRB, GI50), HCT-15; assay type: cell-based; conditions: Homo sapiens, 48 hours
Summary of the method: as §3

Compound | tumor size / cancer proliferation (FIGS. 2, 3) [1] | GI50 [2] | changes in weight of mice / visible toxicity (FIG. 1) [3] | GI50 [4] | GI50 [5] | GI50 [6] | GI50 [7] | tumor weight (FIG. 4) ([1]; 50 mg/kg once a day, tumor extracted after 16 days)
COc1ccc([S+]([O-])C/C=C\SSCc2ccccc2)cc1 (stereo not drawn) [Example 32, (Z)-1-benzyl-2-(3-(4-methoxyphenylsulfinyl)prop-1-enyl)disulfane] | cancer proliferation was inhibited | 3.82 µM | only normal weight increases were observed | 3.12 µM | 3.19 µM | 4.37 µM | 1.55 µM | 
CCCSS/C=C\C[S+]([O-])c1cccc(OC)c1 (stereo not drawn) [Example 18, (Z)-1-(3-(3-methoxyphenylsulfinyl)prop-1-enyl)-2-propyldisulfane] | inhibit cancer proliferation similarly to the positive control SAHA | 1.71 µM | only normal weight increases were observed | 2.06 µM | 1.92 µM | 1.59 µM | 1.34 µM | lighter than the tumor weight in the non-treated group
